Measurements: US11773081B2, “Pharmaceutical composition for preventing or treating wound, comprising indirubin derivative as active ingredient” (CK Regeon Inc., priority 2018, dated 2023)

Test system: mouse acute wound
Test: Wound healing effect of extract and indirubin derivative mixtures in mouse acute wound (Test Example 6)
Assay type: in vivo
Details: mouse acute wound tissue, fluorescence staining
Method: Wound healing-promoting effect was investigated after treating an animal model with the indirubin derivative of Example 1 (0.5 mM), the indirubin derivative of Example 2 (0.5 mM) or the mixtures of Examples 12 and 13 (0.5 mM indirubin derivative mixed with 1 μg/mL Euodia sutchuenensis Dode extract).
The hair on the back of 7-week-old C3H mouse that entered the resting period was removed and a 1.5×1.5 cm^2 wound was made on the hair-removed region. A sample was applied to a positive control group, once daily for 12 days. After measuring wound size of the experimental animal on days 0 and 12, the wound tissue was fixed by immersing in 4% paraformaldehyde, embedded in paraffin and then sliced into 4 μm thickness. The sliced tissue was deparaffinized, rehydrated and then the degree of re-epithelialization was compared. Masson's trichrome staining and Picrosirius red staining were conducted for evaluation of the degree of collagen synthesis. For Masson's trichrome staining, a slide was immersed in Weigert's iron hematoxylin solution for 10 minutes and in Biebrich scarlet-acid fuchsin and aniline blue for 5 minutes each. […] The sliced skin tissue was fluorescence-stained using β-catenin, PCNA, keratin 14 and collagen I antibodies and was observed using a fluorescence microscope (FIG. 9a). […]

For COc1ccc2c(c1)/C(=C1/Nc3ccccc3/C1=N\O)C(=O)N2 [Example 1, 5-methoxylindirubin-3′-oxime], the “expression of β-catenin, PCNA, keratin 14 and collagen I” value was “slightly lower as compared to the positive control group”.
